# Test results: patent US4687773A, “(+)-N-N-propylnorapomorphine and selective limbic activity” (priority 1985, dated 1987)
# Counter-ions that a name gives are not always drawn. Like-named read-outs stand apart in the source and are kept apart here.
# Columns and labels:
# [1] = tested on: DA in the corpus striatum (basal ganglia); test: Head posture (contralateral head deviation) after intrastriatal DA; format: in vivo, rat
# [2] = tested on: dopamine (DA) receptors in the basal ganglia (corpus striatum); test: Stereotyped licking and gnawing behavior rating in the rat; format: in vivo; settings: for SB Score, Percent of Maximum / SB Score (stereotyped behaviors): Table 12, 3 mg/kg ip; for SB Score (stereotyped behaviors): max. possible score 18.0; for stereotyped behavior (in words): rat, in vivo
# Source text: Stereotypy: The mean stereotyped licking and gnawing behavioral rating scheme developed by Tarsy and Baldessarini^8 was used. […]
# Stereotypy scores were rated for one hour as described in […]
# [3] = tested on: dopamine (DA) receptors in the limbic system; test: Locomotor activity (spontaneous or aroused by (-)APO / (-)NPA), electronic activity monitor; format: in vivo, rat; settings: for increase of the locomotor stimulatory effect of APO: with (-)APO; for EAM Score / EAM Score, Percent of Control / interaction with (-)APO locomotor arousal (in words): Table 11; for EAM Score: 60 min; for Locomotion: Table 4; for interaction with (-)APO locomotor arousal (in words): 3 mg/kg ip with (-)APO; for effect on locomotor-arousal activity (in words): with or without (-) isomer
# Experimental: (§1) Activity: Overall motor activity was measured by use of the self-recording Stoelting electronic activity monitor method described previously by Stewart, Campbell, Sperk, and Baldessarini^9. Total activity is obtained by setting monitor sensitivity so as to detect both locomotion and small movements (such as grooming, sniffing, and chewing) as would be prominent in stereotyped responses that tend to diminish locomotion and increase sniffing, licking, and chewing movements. Locomotor activity is detected selectively by setting monitor sensitivity to detect large, locomotor movements, and to minimize smaller movements already described.
# Rats (mean N=6 per condition) were tested for locomotor activity for 60 min following a single dose of (-)APO (0.3 mg/kg, SC), or its vehicle ("placebo" condition). The S(+) isomers were administered in a range of doses from 0 or 0.1 to 30 mg/kg, SC immediately following injection of (-)APO or its vehicle. Data are presented in FIG. 2 as mean EAM activity counts per hour SEM. In that figure, the dashed line labeled "control" represents the mean activity of rats given vehicle only and no aporphine (SD values are indicated by parallel light lines above and below the control mean).
# Test agents (11substituted-N--propylnoraporphine isomers were given at a
# dose of 3 mg/kg, ip (in 2 ml/kg) just prior to (-)apomorphine (APO, at 0.
# mg/kg, ip, in 1 ml/kg) to rats (N = 6) tested in an electronic activity
# [4] = tested on: dopamine (DA) receptors in the limbic system; test: Effect of metabolic inhibitor SKF-525A on locomotor effect of (+)MDO-NPA; format: in vivo, rat
# Experimental: Rats (N = 6) per condition) were tested by monitoring locomotor activity
# on an electronic monitor under higharousal conditions (7-8 PM during earl
# "lights out" phase, and singly in previously occupied test cages).
# Pretreatment was saline (control) or the microsomal inhibitor SKF525A (40
# mg/kg, ip). At 30 min later, saline or (+)MDONPA (3 mg/kg, ip) was given,
# and the rats were monitored for the next 60 min. Data are activity counts
# per hour, as means ± SEM ([*] = significant by ttest at p < 0.05). Th
# [5] = tested on: dopamine (DA) receptors in the limbic system and basal ganglia; test: Total motor activity, electronic activity monitor (EAM); format: in vivo, rat; settings: Table 4
# Experimental: as §1
# All data presented in the Tables below are expressed as the mean results from 4-6 rats per condition, ±S.E.M. Stereotypy is expressed in rating units (maximum=3.0) and activity is expressed in arbitrary units of percent change, derived from EAM counts per unit time, relative to activity in control (saline) animals set at zero.
# All the posttreatment doses of (+)APO were 3.0 mg/kg, s.c. The data
# All posttreatment doses of (+)NPA were 3 mg/kg, s.c. The data are similar
# [6] = tested on: dopamine (DA) receptors in the limbic system; test: Locomotor activity (spontaneous or aroused by (-)APO / (-)NPA), electronic activity monitor; format: in vivo, rat; settings: Table 4; (-)APO 3.0 mg/kg + saline
# [7] = tested on: DA in the limbic system (nucleus accumbens septi); test: Arousal (locomotor activity) induced by DA injected into nucleus accumbens septi; format: in vivo, rat; settings: for activity counts (arousal induced by 16 μg DA in accumbens): 30 min, DA control 238 ± 38; for ED50: Rattus norvegicus; for ED50 / ID50: DA 16 μg in accumbens; for ID50: hydrochloride
# Experimental: An experiment shown in Table 9 involves testing the effects of S(+) isomers of apomorphine (APO) and N-propylnorapomorphine (NPA) given systemically (intraperitoneally, ip), as well as S(+) methylenedioxy-N-propylnorapomorphine (MDO-NPA) given ip or orally (po, by orogastric intubation). […]. […] Activity was monitored for 30 min after injection of DA into the brain, which was done at 10 min after systemic dosing with an S(+)aporphine test compound.
# Data are mean activity counts ± SEM (N = 6) for rats given DA into the
# medial accumbens after pretreatment with an inhibitor of monoamine oxidas
# (MA0), and monitored on EAM for 30 min (aporphine given 10 min before DA
# systemicallyintraperitoneally [ip] or orally [po].
# [8] = intrastriatal dopamine 16 μg + systemic saline
# [9] = test agent 3 mg/kg ip just prior to (-)APO ip
# [10] = test agent 3 mg/kg ip just prior to (-)APO ip, * p < 0.005
# [11] = SKF-525A 40 mg/kg ip, then saline
# [12] = intrastriatal DA 16 μg, 3 mg/kg ip
# [13] = intrastriatal DA 16 μg, 3 mg/kg po
# [14] = SKF-525A 40 mg/kg ip pretreatment, then S(+)MDO-NPA 3 mg/kg ip
structure (smiles),measurement,setting,value
"NCCc1ccc(O)c(O)c1 [DA, dopamine]","Contralateral Head Deviation, Percent of Total",[1]; [8],59.0% of Total
same,"Contralateral Head Deviation, Time",[1]; [8],425 ± 53 s
CCCN1CCc2cccc3c2[C@H]1Cc1cccc(OC)c1-3 [(-)11-methoxy-N--propylnoraporphine],"SB Score, Percent of Maximum",[2],36.1% of Maximum
same,SB Score (stereotyped behaviors),[2]; one hour,6.5 ± 0.50
same,stereotyped behavior (in words),[2]; listed as 11-methoxy congener,moderately active
same,stereotyped behavior (in words),[2]; listed as R(-)11methoxy analog,had some activity
same,increase of the locomotor stimulatory effect of APO,[3]; 3 mg/kg,14%
same,EAM Score,[3]; [9],574 ± 45
same,"EAM Score, Percent of Control",[3]; [10],114% of Control
CCCC(C(=O)OCCN(CC)CC)(c1ccccc1)c1ccccc1 [SKF-525A],Locomotor Activity,[4]; [11],4777 ± 610 counts/hr
same,Locomotor Activity (%),[4]; [11],113%
"CN1CCc2cccc3c2[C@H]1Cc1ccc(O)c(O)c1-3 [(-)APO, R(-)apomorphine]","mean control stereotypy score, % of maximum",[2]; (-)APO 0.3 mg/kg IP + vehicle,51.3 % of maximum
same,mean control stereotypy score,"[2]; (-)APO 0.3 mg/kg IP + vehicle, one hour, maximum possible score 18.0",9.23 ± 0.43
same,approximate ED50 (stereotyped behavior),"[2]; (-)APO, IP, rats",~0.3 mg/kg
same,Stereotypy Score,"[2]; Table 1, (-) isomer 3 mg/kg, s.c., ± saline, maximum 3.0",3.0 ± 0.0 rating units
same,Stereotypy Score,"[2]; Table 4, (-)APO 0.3 mg/kg + saline",1.62 ± 0.23 rating units
same,Stereotypy Score,"[2]; Table 4, (-)APO 1.0 mg/kg + saline",2.09 ± 0.36 rating units
same,Stereotypy Score,"[2]; Table 4, (-)APO 3.0 mg/kg + saline",2.92 ± 0.20 rating units
same,Total Activity,[5]; (-)APO 0.3 mg/kg + saline,42.2 ± 8.5 percent change
same,Total Activity,[5]; (-)APO 1.0 mg/kg + saline,51.9 ± 6.8 percent change
same,Total Activity,[5]; (-)APO 3.0 mg/kg + saline,75.3 ± 8.6 percent change
same,Locomotion,[3]; (-)APO 0.3 mg/kg + saline,63.5 ± 12.3 percent change
same,Locomotion,[3]; (-)APO 1.0 mg/kg + saline,75.8 ± 19.4 percent change
same,"EAM Score, Percent of Control",[3]; (-)APO alone (control),100% of Control
same,EAM Score,"[3]; (-)APO alone (control), ip",505 ± 55
same,Locomotion,[6],48.6 ± 9.3 percent change
"CCCN1CCc2cccc3c2[C@@H]1Cc1cccc(O)c1-3 [(+)11-OH--N--propylnoraporphine, S(+) 11-hydroxy-N-propylnoraporphine hydrochloride and hydrobromide]","SB Score, Percent of Maximum",[2],6.9% of Maximum
same,SB Score (stereotyped behaviors),[2]; one hour,1.3 ± 0.75
same,stereotyped behavior (in words),[2],virtually inactive
same,interaction with (-)APO locomotor arousal (in words),"[3]; listed as S(+)11-hydroxy-N-propylnoraporphine, hydrobromide, 3 mg/kg",strong inhibitory interaction with APO
same,interaction with (-)APO locomotor arousal (in words),"[3]; listed as S(+)11hydroxy-N--propylnoraporphine, hydrobromide, 3 mg/kg",significant inhibition of arousal
same,EAM Score,[3]; [9],218 ± 33
same,"EAM Score, Percent of Control",[3]; [10],43% of Control
same,effect on locomotor-arousal activity (in words),[3],exerted similarly selective actions as (+)NPA
"CCCN1CCc2cccc3c2[C@@H]1Cc1ccc2c(c1-3)OCO2 [(+)MDO-NPA, S(+) 10,11-methylenedioxy-N-propylnoraporphine hydrochloride]",activity counts (arousal induced by 16 μg DA in accumbens),[7]; 0.3 mg/kg ip,122 ± 16 activity counts
same,activity counts (arousal induced by 16 μg DA in accumbens),[7]; 0.3 mg/kg po,149 ± 23 activity counts
same,activity counts (arousal induced by 16 μg DA in accumbens),[7]; 1.0 mg/kg ip,54 ± 9 activity counts
same,activity counts (arousal induced by 16 μg DA in accumbens),[7]; 1.0 mg/kg po,74 ± 17 activity counts
same,activity counts (arousal induced by 16 μg DA in accumbens),[7]; 3.0 mg/kg ip,36 ± 7 activity counts
same,activity counts (arousal induced by 16 μg DA in accumbens),[7]; 3.0 mg/kg po,49 ± 16 activity counts
same,ED50,"[7]; ip, read-out: ID50, ip",0.27 mg/kg
same,ED50,"[7]; po, read-out: ID50, po",0.51 mg/kg
same,ID50,[7]; ip,0.3 mg/kg
same,ID50,[7]; po,0.5 mg/kg
same,effect on arousal induced by DA in accumbens (in words),"[7]; rat, in vivo","also active after systemic oral administration, selectively, against DA placed in the accumbens but not the striatum"
same,times more potent than (+)APO as inhibitor of DA in the limbic system,[7]; vs (+)APO,13 times
same,"Contralateral Head Deviation, Percent of Total",[1]; [12],71.7% of Total
same,"Contralateral Head Deviation, Time",[1]; [12],512 ± 96 s
same,"Contralateral Head Deviation, Percent of Total",[1]; [13],70.1% of Total
same,"Contralateral Head Deviation, Time",[1]; [13],505 ± 89 s
same,Locomotor Activity,[4]; [14],3445 ± 597 counts/hr
same,Locomotor Activity (%),[4]; [14],82%
same,Locomotor Activity,"[4]; saline pretreatment, then S(+)MDO-NPA 3 mg/kg ip",1828 ± 265 counts/hr
same,Locomotor Activity (%),"[4]; saline pretreatment, then S(+)MDO-NPA 3 mg/kg ip, * p < 0.05",43%
"CN1CCc2cccc3c2[C@@H]1Cc1cccc(O)c1-3 [S(+) 11-hydroxyaporphine, S(+) 11-hydroxyaporphine (N-R=N-methyl)]",effect on locomotor-arousal activity (in words),[3],less active
"CCCN1CCc2cccc3c2[C@H]1Cc1cccc(O)c1-3 [(-)11-OH--N--propylnoraporphine, R(-)11-hydroxy-N-propylnoraporphine]","SB Score, Percent of Maximum",[2],76.7% of Maximum
same,SB Score (stereotyped behaviors),[2]; one hour,13.8 ± 0.75
same,stereotyped behavior (in words),[2]; listed as R(-)11-hydroxy-N-- propylnoraporphine,very active
same,stereotyped behavior (in words),[2]; listed as R(-)11-hydroxy-N-propylnoraporphine,striking activity as a DA agonist
same,increase of the locomotor stimulatory effect of APO,[3]; 3 mg/kg,51%
same,EAM Score,[3]; [9],764 ± 58
same,"EAM Score, Percent of Control",[3]; [10],151% of Control
"CCCN1CCc2cccc3c2[C@@H]1Cc1cccc(OC)c1-3 [(+)11-methoxy-N--propylnoraporphine, S(+) 11-Methoxy-N-propylnoraporphine hydrobromide]","SB Score, Percent of Maximum",[2],0.0% of Maximum
same,SB Score (stereotyped behaviors),[2]; one hour,0 ± 0
same,stereotyped behavior (in words),[2],inactive
same,interaction with (-)APO locomotor arousal (in words),[3],devoid of activity
same,EAM Score,[3]; [9],528 ± 25
same,"EAM Score, Percent of Control",[3]; [10],105% of Control
